Patent US4338314A, “[1,2]Anellated-7-phenyl-1,4-benzodiazepine and pharmaceutical compositions thereof and use for treatment of ulcers” (Kali-Chemie Pharma GmbH, priority 1978, dated 1982)

Assays:
[1] = Acute 7-day toxicity after a single application per os (LD50); conditions: mouse, in vivo; single oral dose, unfed white NMRI mice, 7 days
Experimental: The acute 7-day toxicity is determined after a single application per os in white NMRI mice which have not been fed. The calculation of the LD50 is carried out by probitananalysis by means of electronic data processing (see L. Cavalli-Sforza, Gustav-Fischer-Verlag, Stuttgart (1964), Grundbegriffe der Biometrie, Chapter 10, pages 153-190).

[2] = tested on: indomethacine-induced ulcers; test: Effectiveness against indomethacine-induced ulcers in rats; assay type: in vivo, rats (male); conditions: Rattus norvegicus, 1 h before 40 mg/kg indomethacine, 24 h, read-out: Ulcer induced by indomethacine, % inhibited; for inhibition in vivo at 100 mg/kg: 100 mg/kg oral; for inhibition in vivo at 200 mg/kg: 200 mg/kg oral
Experimental: 2. Effectiveness Against Indomethacine-Induced Ulcers in Rats Modified Test Procedure According to U. Jahn and R. W. Adrian, Arzneimittel Forschung, (Drug Research) 19, (1969), p. 36.:
The animals of the blank control group receive the corresponding amount by volume of the suspension medium only. One hour after the application of the test compouns, a dosage of 40 mg/kg of indomethacine contained in an amount of 0.5 ml of a suspension per 100 g animal weight are orally applied to each animal for producing ulcers. Twenty-four hours after the application of the indomethacine the animals are sacrificed.

[3] = tested on: muscle tone; test: Testing of musculatropic properties (traction test); assay type: in vivo; conditions: Mus musculus, 2 h; oral, mice, after 120 minutes; half of animals do not touch wire with hind legs within 5 seconds
Experimental: 3. Testing of Musculatropic Properties:
In a traction test, mice are administered the test substance orally. After 120 minutes the mice are attached at the front paws to a horizontally suspended wire. The ED50 is the dose which causes exactly half of the animals not to touch the wire also with their hind legs within a period of 5 seconds, (W. Theobald et al, Arneim. Forschung 17, (1967), page 561). This test measures the influence of the test substance on the muscle tone of the test subject.

[4] = tested on: central nervous system (hexobarbital sleep time); test: Central nervous depressant properties (prolonging the hexobarbital sleep time); assay type: in vivo; conditions: Mus musculus, 0.5 h; oral, mice, 30 minutes before 64 mg/kg hexobarbital; half of animals extend sleep by factor of 4; read-out: Prolonging hexobarbitol sleep time (ED50)
Experimental: 4. Testing of Central Nervous Depressant Properties (Prolonging the Hexobarbital sleep time):
The test substance is administered orally to mice. After 30 minutes, the animals are additionally injected with hexabarbitol in an amount of 64 mg/kg. The time point of the onset of sleeping posture is determined and the duration of sleeping posture is compared with a control group treated exclusively with hexobarbitol. The dose, with which half of the animals extend the time of sleeping posture by a factor of 4 over that of the control group, is defined as ED50. (J. W. Kemp. M. Tannhauser and E. A. Swingard, Arch. Int. Pharmacodyn. 193(1971), pp 34-47).

[5] = tested on: central nervous system; test: Central nervous / psychopharmacological activity, side effects and toxicity, general statement

Row | SMILES | LD50 at 168 h [1] | inhibition in vivo at 100 mg/kg [2] | ED50 [3] | ED50 [4] | inhibition in vivo at 200 mg/kg [2] | inhibition in vivo at 250 mg/kg ([2]; 250 mg/kg oral) | inhibition in vivo at 150 mg/kg ([2]; 150 mg/kg oral) | inhibition in vivo at 12 mg/kg ([2]; 12 mg/kg oral, higher doses not tolerable) | psychopharmacological effect ([5]; already with small doses) | tolerability of higher doses sufficient to achieve an improved ulcer inhibiting effect ([5]; higher doses)
1 | Clc1ccc2c(c1)C(c1ccccc1Cl)=NCC1COCCN21 (stereo not shown) [E] | > 1470 mg/kg | 86% | > 316 mg/kg | 11.8 mg/kg |  |  |  |  |  | 
2 | Cc1ccc2c(c1)N1CCOCC1CN=C2c1ccccc1 (stereo not shown) [D] | > 1470 mg/kg | 70% | > 316 mg/kg | 138 mg/kg |  |  |  |  |  | 
3 | C=CCN1CCN2c3ccc(Cl)cc3C(c3ccccc3)=NCC2C1 (stereo not shown) [I] | 1090 mg/kg |  | > 316 mg/kg | 100 mg/kg | 81% |  |  |  |  | 
4 | Clc1ccc2c(c1)C(c1ccccc1)=NCC1CSCCN21 (stereo not shown) [H] | > 1470 mg/kg | 74% | 316 mg/kg | 153 mg/kg |  |  |  |  |  | 
5 | Fc1ccc2c(c1)C(c1ccccc1)=NCC1COCCN21 (stereo not shown) [B] | > 1370 mg/kg | 77% | > 296 mg/kg | 80.3 mg/kg |  |  |  |  |  | 
6 | Clc1ccc2c(c1)C(c1ccccc1)=NCC1CN(CCc3ccccc3)CCN21 (stereo not shown) [K] | > 1310 mg/kg |  | > 284 mg/kg | 110 mg/kg | 85% |  |  |  |  | 
7 | Cc1ccc2c(c1)C(c1ccccc1)=NCC1COCCN21 (stereo not shown) [C] | > 1430 mg/kg |  | > 316 mg/kg | 139 mg/kg | 68% |  |  |  |  | 
8 | Cc1ccc2c(c1)C(c1ccccc1)=NCC1CN(C)CCN21 (stereo not shown) [L] | > 1010 mg/kg |  | > 215 mg/kg | 164 mg/kg |  | 70% |  |  |  | 
9 | Cc1cc2c(cc1Cl)N1CCOCC1CN=C2c1ccccc1 (stereo not shown) [G] | > 1520 mg/kg |  | > 327 mg/kg | 119 mg/kg | 77% |  |  |  |  | 
10 | COc1ccc2c(c1)N1CCOCC1CN=C2c1ccccc1 (stereo not shown) [F] | > 1430 mg/kg | 42% | > 308 mg/kg | 202 mg/kg |  |  |  |  |  | 
11 | Clc1ccc2c(c1)C(c1ccccc1)=NCC1COCCN21 (stereo not shown) [A] | 2260 mg/kg |  | 285 mg/kg | 31.6 mg/kg |  |  | 61% |  |  | 
12 | CN1C(=O)CN=C(c2ccccc2)c2cc(Cl)ccc21 [S] |  |  | 4.2 mg/kg | 1.5 mg/kg |  |  |  | 28% |  | 
13 | CN1C(=O)CN=C(c2ccccc2)c2cc(Cl)ccc21 [Substance S, 7-chloro-1-methyl-5-phenyl-1,3-dihydro-2H-1,4-benzodiazepin-2-one] |  |  |  |  |  |  |  |  | strong | not tolerable
